We go through three compounds from US20260327211A1, “MODULATORS OF A POTASSIUM CHANNEL AND OF TRPV1 CHANNEL AND USES THEREOF” (Bsense Bio Therapeutics Ltd., priority 2023, published 2026).

Molecules are shown by their SMILES. pEC50, pIC50: −log10 of the molar value. Like-named read-outs stand apart in the source and are kept apart here.

Data set [1] concerns the target T1, kappa opioid receptors (Homo sapiens, UniProt P41145).
T1 construct: Eurofins DiscoverX, USA
The data set can be described thus: Functional selectivity panel, kappa opioid receptors. It counts as biochemical. Here is the method:
(§1) A broad panel of 78 recombinant targets was tested for pharmacologic activity in vitro through a variety of functional assays (Eurofins DiscoverX, USA), as part of the National Institute of Neurological Disorders and Stroke (NINDS) Preclinical Screening Platform for Pain (PSPP) program. The biological targets for the in vitro profiling have been selected based on avoiding opioid receptor stimulation and targets known to be associated with adverse events or targeted by drugs of abuse. […] For each test, a reference compound was evaluated at the target of interest as a positive control.

A short description of data set [2]: CYP inhibition / time-dependent inhibition, CYP3A4_Midazolam. Type of data set: in vitro ADME, human. The conditions noted are these: human, liver microsomes, role: inhibitor. Summed up:
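Human liver microsomes (0.1 mg/mL) were pre-incubated 30 min at 37° C with compound (0–50.0 μM, 8 concentrations) with or without 1.0 mM NADPH, then given marker substrate (± NADPH) for an isoform-dependent time, e.g. midazolam 2.0 μM for 3 min with CYP3A. Metabolites were quantified by LC-MS/MS as analyte/IS peak area ratios.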

Data set [3] relates to MATE1. Description: Transporter substrate, MATE1. It counts as in vitro ADME. The conditions noted are these: role: substrate. Here is the method:
Additionally, compound 760 was tested for its capability to act as a transporter substrate for various transporters, and was not found to be a transporter substrate for any of the tested transporters.

For data set [4], the target named is T2, CYP2B6 (Homo sapiens, UniProt P20813).
T2 construct: pre-incubation of the human liver microsomes with the test compound; tissue Corning; host or cells: human liver microsomes
T2 sequence (P20813 1-491): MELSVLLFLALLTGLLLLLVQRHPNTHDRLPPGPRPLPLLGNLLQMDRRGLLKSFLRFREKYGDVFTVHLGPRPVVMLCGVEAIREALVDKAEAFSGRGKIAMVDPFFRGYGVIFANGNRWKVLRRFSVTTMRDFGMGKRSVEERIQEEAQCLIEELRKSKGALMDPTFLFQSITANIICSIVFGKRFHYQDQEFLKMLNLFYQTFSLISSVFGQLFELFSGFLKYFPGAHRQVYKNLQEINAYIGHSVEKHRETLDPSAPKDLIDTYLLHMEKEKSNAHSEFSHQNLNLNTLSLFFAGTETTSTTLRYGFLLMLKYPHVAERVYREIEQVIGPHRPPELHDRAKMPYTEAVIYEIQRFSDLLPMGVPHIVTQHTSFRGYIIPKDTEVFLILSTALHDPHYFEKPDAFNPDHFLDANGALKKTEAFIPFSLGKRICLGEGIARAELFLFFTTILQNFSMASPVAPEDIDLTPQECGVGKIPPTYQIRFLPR
Description: CYP inhibition / time-dependent inhibition, CYP2B6_Bupropion. Type of data set: in vitro ADME. Conditions: role: inhibitor.
Description: Pre-incubation with human liver microsomes (HLMs): The TDI inactivation potency on CYP enzymatic activities was evaluated through pre-incubation with HLMs (Corning). […] Concurrently, a set of known time-dependent inactivators was also prepared in duplicate for comparison. Following this, NADPH (1.0 mM) was added to one group (Group 1), and an equal volume of potassium phosphate buffer to the second group (Group 2), marking the beginning of a 30-minute pre-incubation at 37° C.

Data set [5] in a line: CYP inhibition / time-dependent inhibition, CYP3A4_Testosterone. Type of data set: in vitro ADME. Conditions: human, liver microsomes, role: inhibitor, substrate testosterone. Here is the method:
The time-dependent inactivation potency of the test compound to CYP enzymatic activities was assessed by the pre-incubation of the human liver microsomes with the test compound in the presence and absence of NADPH, followed by the incubation with the discrete marker substrates, as follows.
Pre-incubation with human liver microsomes (HLMs): The TDI inactivation potency on CYP enzymatic activities was evaluated through pre-incubation with HLMs (Corning). A liver microsome mixture at a concentration of 0.1 mg/mL, and the test compound at 8 different concentrations (0, 0.05, 0.165, 0.5, 1.65, 5.0, 16.5, or 50.0 μM) was warmed at 37° C. for 10 minutes. Concurrently, a set of known time-dependent inactivators was also prepared in duplicate for comparison. Following this, NADPH (1.0 mM) was added to one group (Group 1), and an equal volume of potassium phosphate buffer to the second group (Group 2), marking the beginning of a 30-minute pre-incubation at 37° C.
Incubation: After pre-incubation, the marker substrate, or marker substrate plus NADPH was added to the mixture, thereby initiating the incubation. The duration of the incubation was dependent on the type of CYP isoform being evaluated. For example, with the CYP3A isoform, the mixture was incubated over 3 minutes utilizing midazolam as the marker substrate (2.0 μM), verapamil as the standard inactivator (3.5 μM).
Termination of Reaction: Following the incubation, ice-cooled acetonitrile containing the internal standard (IS) was added to halt the reactions. Metabolites generated from the marker substrates were then measured via LC-MS/MS, assessed based on peak area ratios of the analyte to IS.

In data set [6] the target is hERG (Homo sapiens, UniProt Q12809). The data set can be described thus: Functional selectivity panel, hERG. It counts as biochemical. Details: Eurofins DiscoverX functional panel cells. The conditions noted are these: up to 10 micromolar. Here is the method:
as §1

The nature of data set [7]: Human hepatocyte stability. Type of data set: in vitro ADME. The conditions noted are these: human hepatocytes; for half-life: read-out: Hepatocytes (human) T1/2.
The nature of data set [8]: Rat hepatocyte stability. Type of data set: in vitro ADME. The conditions noted are these: hepatocytes; for half-life: read-out: Hepatocytes (rat) T1/2.
For data set [9], the target named is T3, cannabinoid 1 receptor (Homo sapiens, UniProt P21554).
T3 construct: Eurofins DiscoverX, USA
Description: Functional selectivity panel, cannabinoid 1 receptor. It counts as biochemical. Here is the method: as §1

T1 sequence (P41145 whole entry): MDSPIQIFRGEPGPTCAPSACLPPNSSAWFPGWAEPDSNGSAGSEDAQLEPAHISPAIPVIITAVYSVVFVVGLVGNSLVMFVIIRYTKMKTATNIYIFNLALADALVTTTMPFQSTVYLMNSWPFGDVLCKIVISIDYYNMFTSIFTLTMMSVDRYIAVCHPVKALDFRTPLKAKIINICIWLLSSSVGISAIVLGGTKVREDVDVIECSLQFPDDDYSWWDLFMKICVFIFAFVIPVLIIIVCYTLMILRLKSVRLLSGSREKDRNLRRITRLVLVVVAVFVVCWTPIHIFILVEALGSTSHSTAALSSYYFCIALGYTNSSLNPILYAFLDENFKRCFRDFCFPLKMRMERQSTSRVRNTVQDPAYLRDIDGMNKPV
hERG, sequence (Q12809 whole entry): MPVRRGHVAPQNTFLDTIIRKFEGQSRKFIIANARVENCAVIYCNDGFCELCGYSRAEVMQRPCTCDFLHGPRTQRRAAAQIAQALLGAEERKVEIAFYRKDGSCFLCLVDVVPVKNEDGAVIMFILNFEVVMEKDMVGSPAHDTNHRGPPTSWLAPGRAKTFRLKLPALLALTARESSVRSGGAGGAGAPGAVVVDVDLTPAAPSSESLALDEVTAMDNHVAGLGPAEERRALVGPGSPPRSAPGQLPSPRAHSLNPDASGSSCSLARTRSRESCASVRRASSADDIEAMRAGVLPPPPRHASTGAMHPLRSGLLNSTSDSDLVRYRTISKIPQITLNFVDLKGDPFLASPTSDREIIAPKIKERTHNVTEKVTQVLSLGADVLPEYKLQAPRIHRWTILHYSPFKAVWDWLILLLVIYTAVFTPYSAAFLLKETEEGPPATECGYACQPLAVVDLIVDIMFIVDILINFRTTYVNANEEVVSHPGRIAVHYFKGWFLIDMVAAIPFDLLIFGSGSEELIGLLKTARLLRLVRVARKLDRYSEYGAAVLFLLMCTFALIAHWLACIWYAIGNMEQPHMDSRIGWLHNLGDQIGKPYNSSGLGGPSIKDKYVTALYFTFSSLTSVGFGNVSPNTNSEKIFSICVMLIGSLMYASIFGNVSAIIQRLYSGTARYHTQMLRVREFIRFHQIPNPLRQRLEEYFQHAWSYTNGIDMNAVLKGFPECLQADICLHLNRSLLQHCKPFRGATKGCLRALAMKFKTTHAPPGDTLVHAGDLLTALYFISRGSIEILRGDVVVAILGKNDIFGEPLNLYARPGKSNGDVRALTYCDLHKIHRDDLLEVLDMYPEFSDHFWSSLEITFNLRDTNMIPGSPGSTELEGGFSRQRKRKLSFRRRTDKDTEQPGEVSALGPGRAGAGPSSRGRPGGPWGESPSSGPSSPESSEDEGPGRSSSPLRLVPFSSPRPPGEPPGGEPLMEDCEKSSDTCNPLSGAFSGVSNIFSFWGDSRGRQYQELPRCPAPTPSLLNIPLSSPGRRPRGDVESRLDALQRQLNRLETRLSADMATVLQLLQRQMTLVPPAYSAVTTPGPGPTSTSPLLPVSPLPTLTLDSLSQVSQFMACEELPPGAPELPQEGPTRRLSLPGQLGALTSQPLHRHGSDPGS
T3 sequence (P21554 whole entry): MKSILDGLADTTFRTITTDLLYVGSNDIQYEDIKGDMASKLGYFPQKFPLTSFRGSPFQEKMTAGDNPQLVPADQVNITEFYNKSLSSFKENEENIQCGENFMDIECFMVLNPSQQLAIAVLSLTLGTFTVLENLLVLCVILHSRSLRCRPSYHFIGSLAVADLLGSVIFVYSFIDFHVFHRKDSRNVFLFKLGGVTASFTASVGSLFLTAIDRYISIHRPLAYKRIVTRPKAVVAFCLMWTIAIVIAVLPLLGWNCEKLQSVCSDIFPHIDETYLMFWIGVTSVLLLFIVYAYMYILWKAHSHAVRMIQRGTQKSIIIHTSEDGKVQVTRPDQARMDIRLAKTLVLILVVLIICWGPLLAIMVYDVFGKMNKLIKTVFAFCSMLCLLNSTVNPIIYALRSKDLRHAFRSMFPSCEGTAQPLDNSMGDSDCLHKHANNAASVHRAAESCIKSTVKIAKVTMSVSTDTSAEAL

On to `O=C(Cc1nccc(-n2cc(Cl)c3cc(Cl)cc(Cl)c32)n1)NC1COCC1O` (stereo not shown) [Compound 760], for which, in data set [1] (up to 10 micromolar), the “Effect on Opioid kappa” value was “no effect”. Moreover, the pIC50 (as a rule, the negative decadic logarithm of the IC50, by convention in mol/L) in data set [2] (Table 9, substrate midazolam, read-out: CYP inhibition IC50 CYP3A-Midazolam) was less than 4.30; in data set [4] (Table 9, read-out: CYP inhibition IC50 CYP2B6), 4.46; in data set [5] (Table 9, read-out: CYP inhibition IC50 CYP3A-Testosterone) it was 4.70. Besides, the MATE1 substrate entry in data set [3] is given as “not a transporter substrate”. Moreover, in data set [6], the “Effect on hERG” value is “no effect”.

With `O=C(Cc1cc(-n2cc(Cl)c3cc(Cl)cc(Cl)c32)ccc1F)NCCO` [Compound 627], in data set [7], the CLint scaled – broadly, the rate of metabolic loss divided by the concentration – was determined as 190 mL/min/kg and the half-life stood at 20.3 min. Also, in [8], the CLint scaled worked out at 514 mL/min/kg and the half-life was 12.6 min.

Consider `O=C(Cc1cncc(-n2cc(Cl)c3cc(Cl)cc(Cl)c32)c1)N[C@@H]1COC[C@H]1O` [Compound 661], for which, in [1] (PAM), the negative logarithm of the EC50 (pEC50) (usually −log10 of the EC50, conventionally taken in molar units) is 5.15. Besides, the pIC50 was 4.71 in data set [2] ((+)NADPH pre-incubation, substrate midazolam 2.0 μM, read-out: IC50 (+)NADPH CYP3A4_Midazolam); 4.52 in [2] ((−)NADPH pre-incubation, substrate midazolam 2.0 μM, read-out: IC50 (−)NADPH CYP3A4_Midazolam); 5.85 in [9]; 5.05 in [4] ((+)NADPH pre-incubation, substrate bupropion, read-out: IC50 (+)NADPH CYP2B6_Bupropion); 4.96 in data set [4] ((−)NADPH pre-incubation, substrate bupropion, read-out: IC50 (−)NADPH CYP2B6_Bupropion). Also, the CLint scaled in data set [7] stood at 73.8 mL/min/kg; in [8] it was 1140 mL/min/kg. In addition, the half-life in [7] turned out to be 52.2 min; in data set [8] it was 5.7 min. Further, the IC50 (as a rule, the concentration that gives 50% inhibition) at 0.5 h in [5] ((+)NADPH pre-incubation) is 7.36 µM; in data set [5] ((−)NADPH pre-incubation), 10.1 µM.
